IC50 and EC50 data for 4 molecules are collected here from ChEMBL document CHEMBL1201862, “PubChem BioAssay data set” (2004).

As usually defined, the IC50 is the concentration at which inhibition is half-maximal. For orientation: EC50 means the concentration at which the effect is half-maximal.

Molecules are shown by their SMILES. Active and inactive are the calls of the source.

In assay [1] the target is Eukaryotic translation initiation factor 4E (Mus musculus, UniProt P63073). As to the kind of experiment: blockers of eIF4G binding by eIF4E – biochemical, TR-FRET, dose response (AID 855).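 Note: potency for disrupting eIF4E binding to eIF4GI seen as loss of FRET.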 Type of assay: functional. For orientation: TR-FRET usually uses a lanthanide donor and a delayed reading to cut background.
For assay [2], the target named is Phosphoethanolamine/phosphocholine phosphatase (Homo sapiens, UniProt Q8TCT1). As to the kind of experiment: SAR assay for compounds that inhibit PHOSPHO1. [Related pubchem assays (depositor defined):AID1545, AID1565, AID1574].
Assay [3] has as its target T1, Mannose-6-phosphate isomerase (Homo sapiens, UniProt P34949).
T1 sequence (P34949 whole entry): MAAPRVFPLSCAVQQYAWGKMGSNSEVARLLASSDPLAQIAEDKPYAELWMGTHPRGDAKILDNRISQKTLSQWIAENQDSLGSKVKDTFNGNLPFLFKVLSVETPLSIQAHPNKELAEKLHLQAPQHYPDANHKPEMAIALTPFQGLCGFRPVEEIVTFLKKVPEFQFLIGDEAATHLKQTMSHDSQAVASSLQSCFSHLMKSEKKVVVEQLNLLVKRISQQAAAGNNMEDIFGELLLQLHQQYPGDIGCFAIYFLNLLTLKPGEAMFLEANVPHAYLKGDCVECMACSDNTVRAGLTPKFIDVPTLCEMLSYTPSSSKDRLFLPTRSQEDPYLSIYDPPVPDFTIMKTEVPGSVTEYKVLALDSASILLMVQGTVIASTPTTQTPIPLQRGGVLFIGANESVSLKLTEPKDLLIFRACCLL
As to the kind of experiment: phosphomannose isomerase inhibition – biochemical, fluorescence intensity, confirmation (AID 1535).

In assay [4] the target is Phosphomannomutase 2 (Homo sapiens, UniProt O15305). The experiment in a line: Counter screen SAR assay for PMM2 inhibitors via a fluorescence intensity assay. [Related pubchem assays (depositor defined):AID1545, AID1574]. Background: A counterscreen serves to expose hits that act by an unwanted route or on another target.
Assay [5] addresses Hexokinase (Trypanosoma brucei, UniProt Q38C41). The experiment in a line: Confirmation assay for inhibitors of Trypanosoma brucei hexokinase 1-Analogue-first series. [Related pubchem assays (depositor defined):AID1430, AID1632, AID2516, AID2560, AID2579, AID2600, AID449725, AID492951]. The class given is functional.
Assay [6] concerns the target T2, Tyrosine-protein phosphatase non-receptor type 7 (Homo sapiens, UniProt P35236).
T2 sequence (P35236 whole entry): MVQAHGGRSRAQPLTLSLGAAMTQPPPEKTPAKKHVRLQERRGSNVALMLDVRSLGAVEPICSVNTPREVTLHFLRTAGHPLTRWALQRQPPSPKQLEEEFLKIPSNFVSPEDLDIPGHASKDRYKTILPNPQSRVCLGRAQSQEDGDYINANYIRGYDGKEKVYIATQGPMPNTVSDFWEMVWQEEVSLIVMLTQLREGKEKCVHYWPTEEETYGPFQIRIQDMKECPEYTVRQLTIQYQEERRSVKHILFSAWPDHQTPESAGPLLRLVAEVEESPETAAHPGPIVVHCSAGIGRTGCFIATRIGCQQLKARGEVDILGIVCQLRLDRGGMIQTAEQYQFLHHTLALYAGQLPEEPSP
The experiment in a line: SAR analysis of chemical inhibitors of HePTP using a Fluorescent assay - Set 2. [Related pubchem assays (depositor defined):AID1059, AID1077, AID1661, AID2085, AID521]. Type of assay: functional.

The target of assay [7] is Dual specificity protein phosphatase 3 (Homo sapiens, UniProt P51452). As to the kind of experiment: SAR VHR1 Fluorescent Assay for In Vitro dose response studies Set 2. [Related pubchem assays (depositor defined):AID1654, AID1661, AID1878]. Type of assay: functional.
Assay [8] deals with T3, Sphingosine 1-phosphate receptor 4 (Homo sapiens, UniProt O95977).
T3 sequence (O95977 whole entry): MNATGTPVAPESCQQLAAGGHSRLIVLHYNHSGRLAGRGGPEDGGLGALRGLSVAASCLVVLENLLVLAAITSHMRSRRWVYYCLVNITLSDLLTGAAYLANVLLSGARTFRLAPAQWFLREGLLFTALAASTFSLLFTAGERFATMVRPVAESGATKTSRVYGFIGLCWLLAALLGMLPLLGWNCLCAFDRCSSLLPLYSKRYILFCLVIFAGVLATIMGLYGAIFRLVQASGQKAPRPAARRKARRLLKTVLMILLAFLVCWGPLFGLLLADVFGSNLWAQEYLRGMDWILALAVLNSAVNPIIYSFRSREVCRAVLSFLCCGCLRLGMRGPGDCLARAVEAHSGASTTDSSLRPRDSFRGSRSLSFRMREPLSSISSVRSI
As to the kind of experiment: potency of S1P4 activators – cell-based, fluorescence, synthesized compounds, late-stage follow-up (AID 463107). Type of assay: functional.

Phosphoethanolamine/phosphocholine phosphatase, sequence (Q8TCT1 whole entry): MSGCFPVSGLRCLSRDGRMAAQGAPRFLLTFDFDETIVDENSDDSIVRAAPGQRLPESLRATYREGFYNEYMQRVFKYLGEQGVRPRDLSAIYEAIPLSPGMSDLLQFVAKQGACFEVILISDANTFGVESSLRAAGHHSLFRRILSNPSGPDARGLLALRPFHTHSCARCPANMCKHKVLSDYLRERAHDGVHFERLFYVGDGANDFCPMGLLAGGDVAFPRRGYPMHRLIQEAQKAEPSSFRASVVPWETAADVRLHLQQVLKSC
Eukaryotic translation initiation factor 4E, sequence (P63073 whole entry): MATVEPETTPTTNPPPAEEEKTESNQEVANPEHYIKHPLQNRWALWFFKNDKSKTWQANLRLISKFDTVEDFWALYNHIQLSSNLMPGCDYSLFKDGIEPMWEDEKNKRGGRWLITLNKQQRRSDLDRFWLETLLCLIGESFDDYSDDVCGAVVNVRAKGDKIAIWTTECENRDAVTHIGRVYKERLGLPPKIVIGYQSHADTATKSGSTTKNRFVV
Hexokinase, sequence (Q38C41 whole entry): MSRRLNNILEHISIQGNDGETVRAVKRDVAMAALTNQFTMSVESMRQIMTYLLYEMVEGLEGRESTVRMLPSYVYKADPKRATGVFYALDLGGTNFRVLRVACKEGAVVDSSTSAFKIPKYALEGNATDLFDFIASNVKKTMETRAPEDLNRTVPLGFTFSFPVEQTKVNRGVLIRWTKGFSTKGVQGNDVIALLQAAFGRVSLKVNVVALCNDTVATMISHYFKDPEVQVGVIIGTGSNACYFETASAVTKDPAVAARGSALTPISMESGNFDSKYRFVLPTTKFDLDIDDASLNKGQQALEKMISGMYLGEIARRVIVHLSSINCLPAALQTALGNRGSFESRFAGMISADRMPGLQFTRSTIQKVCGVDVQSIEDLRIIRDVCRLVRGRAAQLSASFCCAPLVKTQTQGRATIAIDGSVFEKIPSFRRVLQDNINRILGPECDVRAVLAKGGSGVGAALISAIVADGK
Phosphomannomutase 2, sequence (O15305 whole entry): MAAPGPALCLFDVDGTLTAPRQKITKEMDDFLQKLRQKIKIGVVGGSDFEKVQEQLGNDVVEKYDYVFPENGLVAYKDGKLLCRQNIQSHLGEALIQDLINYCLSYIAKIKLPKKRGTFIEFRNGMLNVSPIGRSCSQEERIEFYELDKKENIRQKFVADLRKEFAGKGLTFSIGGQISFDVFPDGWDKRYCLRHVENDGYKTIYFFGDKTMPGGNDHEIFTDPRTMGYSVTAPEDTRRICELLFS
Dual specificity protein phosphatase 3, sequence (P51452 whole entry): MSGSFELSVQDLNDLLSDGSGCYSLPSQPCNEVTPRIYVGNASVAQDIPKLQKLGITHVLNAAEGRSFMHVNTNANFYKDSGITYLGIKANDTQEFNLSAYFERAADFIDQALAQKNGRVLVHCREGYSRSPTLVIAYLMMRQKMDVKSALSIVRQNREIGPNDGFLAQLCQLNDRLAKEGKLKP

With `O=c1c2c([N+](=O)[O-])cc([N+](=O)[O-])cc2sn1-c1ccc(Br)cc1`, the IC50 in assay [1] is 8.14 µM (active); in assay [2], 0.0725 µM (active); in assay [3] it was 12.2 µM (active); in assay [4], 10.8 µM (active).

For `O=C(Nc1cc(Cl)ccc1C(=O)O)c1ccc(C(F)(F)F)cc1`, in assay [5], the IC50 is > 25 µM (inactive).

Consider `S=C(Nc1ccccc1)N1CCN(Cc2ccc3c(c2)OCO3)CC1`, for which the IC50 in assay [6] and in assay [7] was > 100 µM (inactive) throughout.

Regarding `COCc1ccc(OCCOc2ccc(Cl)cc2Cl)c(Cl)n1`, in assay [8], the EC50 is 12 µM (inactive).
